According to US20100168084A1, “Therapeutic compounds and related methods of use” (priority 2008, published 2010):
Like-named read-outs stand apart in the source and are kept apart here.

Molecular target: T1, sirtuin protein (Homo sapiens, UniProt Q96EB6)
T1 sequence (Q96EB6 2-747 limits assumed): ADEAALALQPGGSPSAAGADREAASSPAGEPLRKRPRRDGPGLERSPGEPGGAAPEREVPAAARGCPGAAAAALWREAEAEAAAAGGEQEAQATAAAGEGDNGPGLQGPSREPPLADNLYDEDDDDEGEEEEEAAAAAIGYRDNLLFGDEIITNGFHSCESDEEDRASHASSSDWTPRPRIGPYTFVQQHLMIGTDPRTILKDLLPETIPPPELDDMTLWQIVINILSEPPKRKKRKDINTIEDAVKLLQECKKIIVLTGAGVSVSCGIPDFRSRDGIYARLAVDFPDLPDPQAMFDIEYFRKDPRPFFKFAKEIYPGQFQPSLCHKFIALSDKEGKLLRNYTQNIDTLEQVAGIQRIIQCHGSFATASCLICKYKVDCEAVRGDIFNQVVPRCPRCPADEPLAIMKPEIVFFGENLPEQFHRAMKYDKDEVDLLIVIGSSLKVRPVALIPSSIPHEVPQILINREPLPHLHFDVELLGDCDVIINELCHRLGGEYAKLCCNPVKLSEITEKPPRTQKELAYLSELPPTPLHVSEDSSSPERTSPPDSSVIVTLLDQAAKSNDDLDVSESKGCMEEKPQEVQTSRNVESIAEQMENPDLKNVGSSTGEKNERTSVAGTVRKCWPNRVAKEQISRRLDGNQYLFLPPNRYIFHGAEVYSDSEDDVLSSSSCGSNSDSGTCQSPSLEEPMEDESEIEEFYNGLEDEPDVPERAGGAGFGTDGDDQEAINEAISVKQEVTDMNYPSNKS
Assay: MS assay (IC50 MS ASSAY / ED50 MS / FOLD ACTIVATION MS)
Assay type: biochemical
Set-up: scale not given here

[1] = Table 4, class symbols A′, A, B, D, NA, legend not given
[2] = class symbols (A′, A, B, D, NA), no legend given
[3] = MS assay, class symbols, key not given
[4] = Table 4, class symbols A′, A, B, C, NA, legend not given

O=C(Nc1ccccc1-c1cn2c(CN3CCNCC3)csc2n1)c1cc(-c2ccccc2)ncn1 [Compound 625]
A′: ED50 MS ASSAY | ED50 MS ASSAY (Table 4) | ED50 MS ASSAY (Table 4, class symbols) | ED50 MS ASSAY [1] | ED50 MS ASSAY [2]

O=C(Nc1ccccc1-c1cn2c(CN3CCN(Cc4ccccc4)CC3=O)csc2n1)c1cnc2ccccc2n1 [Compound 628]
A′: ED50 MS ASSAY | ED50 MS ASSAY (Table 4) | ED50 MS ASSAY (Table 4, class symbols) | ED50 MS ASSAY [1] | ED50 MS ASSAY [2]

COc1cc(C(=O)Nc2ccccc2-c2nc3ncccc3o2)ccc1CN1CCOCC1 [Compound 631]
A′: ED50 MS ASSAY | ED50 MS ASSAY (Table 4) | ED50 MS ASSAY (Table 4, class symbols) | ED50 MS ASSAY [1] | ED50 MS ASSAY [2]

O=C(Nc1ccccc1-c1cn2c(CN3CCNCC3)csc2n1)c1cnc2ccccc2c1 [Compound 645]
A′: ED50 MS ASSAY | ED50 MS ASSAY (Table 4) | ED50 MS ASSAY (Table 4, class symbols) | ED50 MS ASSAY [1] | ED50 MS ASSAY [2]

CN(C)CCOCc1csc2nc(-c3ccccc3NC(=O)c3cnc4ccccc4n3)cn12 [Compound 647]
A′: ED50 MS ASSAY | ED50 MS ASSAY (Table 4) | ED50 MS ASSAY (Table 4, class symbols) | ED50 MS ASSAY [1] | ED50 MS ASSAY [2]

O=C(Nc1ccccc1-c1cn2c(CO)csc2n1)c1cnc2ccccc2n1 [Compound 648]
A′: ED50 MS ASSAY | ED50 MS ASSAY (Table 4) | ED50 MS ASSAY (Table 4, class symbols) | ED50 MS ASSAY [1] | ED50 MS ASSAY [2]

CN1CCN(C(=O)Cc2csc3nc(-c4ccccc4NC(=O)c4cnc5ccccc5n4)cn23)CC1 [Compound 649]
A′: ED50 MS ASSAY | ED50 MS ASSAY (Table 4) | ED50 MS ASSAY (Table 4, class symbols) | ED50 MS ASSAY [1] | ED50 MS ASSAY [2]

CC(=O)N1CCN(Cc2csc3nc(-c4ccccc4NC(=O)c4cnc5ccccc5n4)cn23)CC1 [Compound 651]
A′: ED50 MS ASSAY | ED50 MS ASSAY (Table 4) | ED50 MS ASSAY (Table 4, class symbols) | ED50 MS ASSAY [1] | ED50 MS ASSAY [2]

COc1cc(NC(=S)Nc2cc(-c3nc4ncccc4o3)ccn2)cc(OC)c1 [Compound 661]
A′: ED50 MS ASSAY | ED50 MS ASSAY (Table 4) | ED50 MS ASSAY (Table 4, class symbols) | ED50 MS ASSAY [1] | ED50 MS ASSAY [2]

O=C(Nc1ccccc1-c1cn2c(CNCC(O)CO)csc2n1)c1cnc2ccccc2n1 (stereo not shown) [Compound 676]
A′: ED50 MS ASSAY | ED50 MS ASSAY (Table 4) | ED50 MS ASSAY (Table 4, class symbols) | ED50 MS ASSAY [1] | ED50 MS ASSAY [2]

O=C(Nc1ccccc1-c1cn2c(CCN3CCNCC3)csc2n1)c1cnc2ccccc2n1 [Compound 680]
A′: ED50 MS ASSAY | ED50 MS ASSAY (Table 4) | ED50 MS ASSAY (Table 4, class symbols) | ED50 MS ASSAY [1] | ED50 MS ASSAY [2]

N#Cc1cccc(C(=O)Nc2ccccc2-c2nc3cc(CN4CCOCC4)cnc3s2)c1 [Compound 685]
A′: ED50 MS ASSAY | ED50 MS ASSAY [3] | ED50 MS ASSAY (Table 4) | ED50 MS ASSAY [4]

O=C(Nc1ccccc1-c1cn2c(CN3CCNCC3)csc2n1)c1cc(F)cc(F)c1 [Compound 695]
A′: ED50 MS ASSAY | ED50 MS ASSAY [3] | ED50 MS ASSAY (TABLE 4) | ED50 MS ASSAY (Table 4) | ED50 MS ASSAY [4]

O=C(Nc1ccccc1-c1cn2c(CN3CCNCC3)csc2n1)c1cccc(OC(F)(F)F)c1 [Compound 698]
A′: ED50 MS ASSAY | ED50 MS ASSAY [3] | ED50 MS ASSAY (TABLE 4) | ED50 MS ASSAY (Table 4) | ED50 MS ASSAY [4]

Cc1csc2nc(-c3ccccc3NC(=O)c3cnc4ccccc4n3)cn12 [Compound 707]
A′: ED50 MS ASSAY | ED50 MS ASSAY [3] | ED50 MS ASSAY (TABLE 4) | ED50 MS ASSAY (Table 4) | ED50 MS ASSAY [4]

O=C(Nc1ccccc1-c1cn2c(CN3CCNCC3)csc2n1)c1ccc(-c2ccccc2)cc1 [Compound 708]
A′: ED50 MS ASSAY | ED50 MS ASSAY [3] | ED50 MS ASSAY (TABLE 4) | ED50 MS ASSAY (Table 4) | ED50 MS ASSAY [4]

O=C(Nc1ccccc1-c1cn2c(CN3CCNCC3)csc2n1)c1cccc(-c2ccccc2)c1 [Compound 710]
A′: ED50 MS ASSAY | ED50 MS ASSAY [3] | ED50 MS ASSAY (TABLE 4) | ED50 MS ASSAY (Table 4) | ED50 MS ASSAY [4]

O=C(Nc1ccccc1-c1cn2c(CN3CCSC3)csc2n1)c1cnc2ccccc2n1 [Compound 715]
A′: ED50 MS ASSAY | ED50 MS ASSAY [3] | ED50 MS ASSAY (TABLE 4) | ED50 MS ASSAY (Table 4) | ED50 MS ASSAY [4]

NC1CCN(Cc2csc3nc(-c4ccccc4NC(=O)c4cnc5ccccc5n4)cn23)CC1 [Compound 716]
A′: ED50 MS ASSAY | ED50 MS ASSAY [3] | ED50 MS ASSAY (TABLE 4) | ED50 MS ASSAY (Table 4) | ED50 MS ASSAY [4]

COc1cc(OC)cc(C(=O)Nc2ccccc2-c2nc3cc(CN(C)C)cnc3s2)c1 [Compound 722]
A′: ED50 MS ASSAY | ED50 MS ASSAY [3] | ED50 MS ASSAY (TABLE 4) | ED50 MS ASSAY (Table 4) | ED50 MS ASSAY [4]

O=C(Nc1ccccc1-c1nc2cc(CN3CCOCC3)cnc2s1)c1ccc2ccccc2n1 [Compound 724]
A′: ED50 MS ASSAY | ED50 MS ASSAY [3] | ED50 MS ASSAY (TABLE 4) | ED50 MS ASSAY (Table 4) | ED50 MS ASSAY [4]

Cc1ccc(C(=O)Nc2ccccc2-c2nc3ccc(CN4CCNCC4)nc3s2)cc1C [Compound 727]
A′: ED50 MS ASSAY | ED50 MS ASSAY [3] | ED50 MS ASSAY (TABLE 4) | ED50 MS ASSAY (Table 4) | ED50 MS ASSAY [4]

O=C(Nc1ccccc1-c1nc2ccc(CN3CCNCC3)nc2s1)c1ccc2ccccc2n1 [Compound 729]
A′: ED50 MS ASSAY | ED50 MS ASSAY [3] | ED50 MS ASSAY (TABLE 4) | ED50 MS ASSAY (Table 4) | ED50 MS ASSAY [4]

O=C(Nc1ccccc1-c1nc2cc(CN3CCNCC3)cnc2s1)c1cc(-c2ccccc2)no1 [Compound 732]
A′: ED50 MS ASSAY | ED50 MS ASSAY [3] | ED50 MS ASSAY (TABLE 4) | ED50 MS ASSAY (Table 4) | ED50 MS ASSAY [4]

O=C(Nc1ccccc1-c1cn2c(CN3CCNCC3)csc2n1)c1cccc(-c2cc[nH]n2)c1 [Compound 733]
A′: ED50 MS ASSAY | ED50 MS ASSAY [3] | ED50 MS ASSAY (TABLE 4) | ED50 MS ASSAY (Table 4) | ED50 MS ASSAY [4]

COc1ccc(-c2cc(C(=O)Nc3ccccc3-c3cn4c(CN5CCNCC5)csc4n3)[nH]n2)cc1 [Compound 735]
A′: ED50 MS ASSAY | ED50 MS ASSAY [3] | ED50 MS ASSAY (TABLE 4) | ED50 MS ASSAY (Table 4) | ED50 MS ASSAY [4]

COc1ccc(-c2ccc(C(=O)Nc3ccccc3-c3cn4c(CN5CCNCC5)csc4n3)o2)cc1 [Compound 736]
A′: ED50 MS ASSAY | ED50 MS ASSAY [3] | ED50 MS ASSAY (TABLE 4) | ED50 MS ASSAY (Table 4) | ED50 MS ASSAY [4]

O=C(Nc1ccccc1-c1cn2c(CN3CCNCC3)csc2n1)c1cccc(SC(F)F)c1 [Compound 737]
A′: ED50 MS ASSAY | ED50 MS ASSAY [3] | ED50 MS ASSAY (TABLE 4) | ED50 MS ASSAY (Table 4) | ED50 MS ASSAY [4]
